Converted amounts (≈) assume the structure as drawn.
Columns and labels:
non-diabetic wounds [1] = conditions: rats, pigs, and humans; in words; cited from earlier work
MMP-1 = MMP-1 (Homo sapiens (Human), UniProt P03956); conditions: at 250 μM; data from Gooyit et al. 2014; cited from earlier work
ADAM10 = ADAM10 (Homo sapiens (Human), UniProt O14672); assay: Enzyme inhibition studies, ADAM10; format: biochemical
physchem = conditions: water, thermodynamic from solid
MMP-7 = MMP-7 (Homo sapiens (Human), UniProt P09237); conditions: at 250 μM; data from Gooyit et al. 2014; cited from earlier work
MMP-7, sequence (P09237 95-267): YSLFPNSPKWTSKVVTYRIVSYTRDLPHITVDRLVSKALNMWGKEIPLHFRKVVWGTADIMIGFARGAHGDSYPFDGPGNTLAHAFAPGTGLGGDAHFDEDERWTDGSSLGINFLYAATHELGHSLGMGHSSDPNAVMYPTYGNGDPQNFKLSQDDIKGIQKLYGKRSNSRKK

non-diabetic wounds [2] = assay: Healing of non-diabetic wounds; format: in vivo, mice; conditions: in words
ADAM9 = ADAM9 (Homo sapiens (Human), UniProt Q13443); assay: Enzyme inhibition studies, ADAM9; format: biochemical
ADAM9, sequence (Q13443 206-697): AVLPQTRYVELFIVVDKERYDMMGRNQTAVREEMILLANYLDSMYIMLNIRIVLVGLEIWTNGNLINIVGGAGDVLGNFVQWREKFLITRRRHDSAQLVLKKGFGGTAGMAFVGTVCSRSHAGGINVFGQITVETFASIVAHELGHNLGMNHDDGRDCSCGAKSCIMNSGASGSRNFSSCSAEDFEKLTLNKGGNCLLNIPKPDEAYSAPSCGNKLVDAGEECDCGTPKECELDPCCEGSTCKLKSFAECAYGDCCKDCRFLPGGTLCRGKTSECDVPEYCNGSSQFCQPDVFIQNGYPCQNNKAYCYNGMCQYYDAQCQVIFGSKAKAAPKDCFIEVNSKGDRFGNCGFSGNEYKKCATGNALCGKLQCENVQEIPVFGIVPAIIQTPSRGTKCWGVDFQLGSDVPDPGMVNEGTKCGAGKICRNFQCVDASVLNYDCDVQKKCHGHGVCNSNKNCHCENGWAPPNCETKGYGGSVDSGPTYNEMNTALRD

diabetic (db/db) mice = assay: Mouse diabetic wound model; format: in vivo; conditions: for wound healing versus vehicle: 0.25 mg/wound/day; for wound healing versus vehicle / wound closure: db/db mice; for wound closure: 0.25 mg/wound/day topical
Excerpt: The excisional mouse diabetic model validated by Sullivan et al. was used (Sullivan et al., Plast. Reconstr. Surg. (2004) 113, 953-960). The procedure for inflicting the wounds (single 8 mm wound on the dorsal region) was the same as described previously (Gooyit et al., ACS Chem. Biol. (2014) 9, 505-510). Wounds were photographed and covered with a sterile 3M Tegaderm™ transparent dressing (Butler Schein Animal Health, Inc.).
Female diabetic db/db (BKS.Cg-Dock7m+/+Leprdb/J, 8-weeks old, 38±3 g, n=24) were used for this study. Wounds were inflicted as described. Treatment with the MMP-2 inhibitor (50 μL of 5.0 mg/mL in 80% propylene glycol/20% DMSO, equivalent to 0.25 mg per wound) or vehicle (50 μL of 80% propylene glycol/20% DMSO) was started one day after wound infliction and continued once a day for 14 days. Digital photographs of wounds were taken on days 0, 7, 10, and 14 while the animals were under isoflurane anesthesia. On day 14, all mice were sacrificed. The wounds were excised, embedded in optimal cutting temperature (OCT) compound, and cryosectioned for histological evaluation.
Female diabetic db/db (BKS.Cg-Dock7m+/+Leprdb/J, 8-weeks old, 38±3 g, n=24) were used for this study. Wounds were inflicted and the following day the wounds were treated topically with MMP-8 (50 μL of 20 μg/mL MMP-8 in reaction buffer) or vehicle (50 μL reaction buffer) once a day for 14 days. The reaction buffer consisted of 50 mM Tris (pH 7.5), 10 mM CaCl2, 150 mM NaCl, and 0.05% (w/v) Brij-35. Digital photographs of the wounds were taken on days 0, 7, 10, and 14 while animals were under isoflurane anesthesia. On days 7 and 14, 12 mice (n=6 per group) were sacrificed. The wounds were excised, embedded in OCT compound, and cryosectioned for histological evaluation.
Photographs were taken using the procedure described by Gooyit et al. (ACS Chem Biol. (2014) 9, 505-510) at a fixed distance above the wounds and calibrated using a ruler included in the photographic frame. Image J 1.48c software was used to calculate wound areas. The percentage of wound closure was calculated from the wound area on the specified day relative to that on day 0.
Fresh wound tissue was harvested and embedded in OCT compound. Subsequently, the tissue was cryosectioned for H&E staining (12-μm thickness) and for apoptosis assays and in-situ zymography (8-μm thickness). Re-epithelialization was assessed on a Nikon Eclipse 90i Fluorescent Microscope (Nikon Instruments Inc.) as described earlier (Tkalcevic et al., Toxicol. Pathol. (2009) 37, 183-192). Apoptosis was evaluated using Derma TACS™ Apoptosis detection kits (Trevigen, Inc.) according to the manufacturer's instructions. The protocol of in-situ zymography was adapted from known methods. Gelatinolytic activity was detected in unfixed cryostat sections using DQ-gelatin as a substrate. DQ-gelatin was prepared at a concentration of 20 μg/mL in Tris-buffered saline (TBS) buffer (50 mM TBS pH 7.6, 1 mM CaCl2). A general MMP inhibitor in 0.5 mM EDTA was prepared as a negative control. Cryostat sections were air-dried for 10 min and incubated in the substrate mixture in the presence and absence of EDTA for 1 hr at room temperature. After the incubation period, the slides were washed in PBS (three times, 5 min each), fixed with 4% paraformaldehyde in PBS for 10 min in the dark, washed again with PBS (three times, 5 min each), incubated in the dark for 5 min with 300 nM DAPI solution, and mounted with anti-quenching mounting medium. Fluorescence of FITC was detected with excitation at 460-500 nm and emission at 512-542 nm. DAPI was detected with excitation at 340-380 nm and emission at 425-∞ nm.
Data are expressed as mean±SD. Wound healing between the groups in the studies were analyzed for statistical significance using a paired Student t-test, where p<0.05 was considered statistically significant.

MMP-9 = MMP-9 (Homo sapiens (Human), UniProt P14780); conditions: at 50,000 nM; Gooyit et al. 2013; cited from earlier work
MMP-9, sequence (P14780 107-444): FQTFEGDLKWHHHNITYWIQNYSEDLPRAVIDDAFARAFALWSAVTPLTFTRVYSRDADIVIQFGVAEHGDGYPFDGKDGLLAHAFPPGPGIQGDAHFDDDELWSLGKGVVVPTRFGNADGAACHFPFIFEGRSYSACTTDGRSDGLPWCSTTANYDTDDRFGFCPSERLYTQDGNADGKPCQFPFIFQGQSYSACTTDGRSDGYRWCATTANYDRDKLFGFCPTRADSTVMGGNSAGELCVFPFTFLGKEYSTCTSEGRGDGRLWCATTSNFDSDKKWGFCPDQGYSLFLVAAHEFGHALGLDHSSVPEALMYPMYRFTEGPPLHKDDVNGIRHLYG

MMP-2 = MMP-2 (Homo sapiens (Human), UniProt P08253); conditions: literature / previously reported; cited from earlier work
MMP-2, sequence (P08253 110-660): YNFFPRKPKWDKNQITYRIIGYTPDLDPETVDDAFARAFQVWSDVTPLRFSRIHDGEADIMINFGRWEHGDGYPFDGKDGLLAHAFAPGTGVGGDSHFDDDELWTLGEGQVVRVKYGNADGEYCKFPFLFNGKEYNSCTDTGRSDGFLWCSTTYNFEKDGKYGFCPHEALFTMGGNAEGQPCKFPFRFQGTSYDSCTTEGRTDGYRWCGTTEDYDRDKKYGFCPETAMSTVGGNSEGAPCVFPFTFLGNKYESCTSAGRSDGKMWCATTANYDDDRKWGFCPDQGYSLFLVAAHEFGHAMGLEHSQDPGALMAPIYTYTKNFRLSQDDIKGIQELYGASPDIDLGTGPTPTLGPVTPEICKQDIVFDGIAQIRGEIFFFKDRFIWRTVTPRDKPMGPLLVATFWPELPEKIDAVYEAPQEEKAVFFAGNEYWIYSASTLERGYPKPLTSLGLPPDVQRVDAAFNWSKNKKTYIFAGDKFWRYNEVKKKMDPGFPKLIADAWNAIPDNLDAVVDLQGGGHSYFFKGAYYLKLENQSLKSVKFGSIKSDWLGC

MMP-14 = MMP-14 (Homo sapiens (Human), UniProt P50281); conditions: literature; cited from earlier work

ADAM10, sequence (O14672 214-672): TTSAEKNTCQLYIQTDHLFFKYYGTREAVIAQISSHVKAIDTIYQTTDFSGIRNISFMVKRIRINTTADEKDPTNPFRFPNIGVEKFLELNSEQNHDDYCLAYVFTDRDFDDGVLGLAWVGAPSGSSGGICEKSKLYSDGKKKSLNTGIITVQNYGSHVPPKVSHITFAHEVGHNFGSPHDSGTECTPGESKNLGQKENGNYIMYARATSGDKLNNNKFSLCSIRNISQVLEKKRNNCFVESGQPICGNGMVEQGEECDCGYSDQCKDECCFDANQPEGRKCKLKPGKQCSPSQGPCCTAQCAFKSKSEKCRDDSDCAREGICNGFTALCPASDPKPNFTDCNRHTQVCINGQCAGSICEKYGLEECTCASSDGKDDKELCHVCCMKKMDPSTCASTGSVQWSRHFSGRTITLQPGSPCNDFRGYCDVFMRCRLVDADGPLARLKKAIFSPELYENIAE
MMP-1, sequence (P03956 98-276): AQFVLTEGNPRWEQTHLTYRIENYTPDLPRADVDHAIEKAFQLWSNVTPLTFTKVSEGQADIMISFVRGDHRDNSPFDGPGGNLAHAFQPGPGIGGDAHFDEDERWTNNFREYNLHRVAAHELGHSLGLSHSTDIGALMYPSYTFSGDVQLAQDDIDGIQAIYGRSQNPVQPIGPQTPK

CNC(=O)[C@H](Cc1c[nH]c2ccccc12)NC(=O)[C@@H](CC(=O)NO)CC(C)C [ilomastat]
wound closure and epithelialization in non-diabetic wounds (non-diabetic wounds [1]): delayed wound closure and diminished epithelialization

Nc1ccc(Oc2ccc(S(=O)(=O)CC3CS3)cc2)cc1 (centres unmarked) [Compound 2]
Inhibition (MMP-1): 10%^i, j | inhibition at 20 µM (ADAM10): 21% | solubility (physchem): 4900 µg/mL (≈ 15.2 mM) | Inhibition (MMP-7): 16%^i, j | effect on non-diabetic wounds (non-diabetic wounds [2]): does not show any effect | inhibition at 20 µM (ADAM9): 30% | healing of diabetic wounds (diabetic (db/db) mice; selective MMP-9 inhibition, in words): healed more rapidly

CCNC(=O)Nc1ccc(Oc2ccc(S(=O)(=O)CC3CS3)cc2)cc1 (centres unmarked) [Compound 1x]
MMP-9 inhibition (MMP-9): 28% | residence time bound to MMP-2 (MMP-2): 24.5 min | wound healing versus vehicle (diabetic (db/db) mice; in words): No significant differences | wound healing versus vehicle (diabetic (db/db) mice; in words, listed as MMP-2 inhibitor): No differences were observed between the groups | re-epithelialization (diabetic (db/db) mice; H&E staining, day 14, in words): Partial re-epithelialization | wound closure (diabetic (db/db) mice; day 7): 23±16% | wound closure (diabetic (db/db) mice; day 10): 45±11% | wound closure (diabetic (db/db) mice; day 14): 70±15%

B1: TIMP-4: tissue inhibitor of metalloproteinase, protein inhibitor of MMPs (protein, UniProt Q99727 30-224, looked up)
Metalloproteinase inhibitor 4: CSCAPAHPQQHICHSALVIRAKISSEKVVPASADPADTEKMLRYEIKQIKMFKGFEKVKDVQYIYTPFDSSLCGVKLEANSQKQYLLTGQVLSDGKVFIHLCNYIEPWEDLSLVQRESLNHHYHLNCGCQITTCYTVPCTISAPNECLWTDWLLERKLYGYQAQHYVCMKHVDGTCSWYRGHLPLRKEFVDIVQP
residence time bound to MMP-14 (MMP-14): 39 min

Source: patent US9951035B2, “Selective matrix metalloproteinase inhibitors” (University of Notre Dame du Lac, priority 2014, dated 2018)
